PubChem BioAssay (NCI)
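All cell lines were grown in 96-well plates and treated with compound for 48 hours. Definition used: TGI = concentration required for complete inhibition of growth.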

Key:
Test in all cases: growth of human tumour cells (NCI), 48 h
M14 melanoma = tested on: M14 melanoma
MALME-3M melanoma = tested on: MALME-3M melanoma
SNB-19 CNS = tested on: SNB-19 CNS
SW-620 colon = tested on: SW-620 colon
UO-31 renal = tested on: UO-31 renal
BT-549 breast = tested on: BT-549 breast
PC-3 prostate = tested on: PC-3 prostate
SF-295 CNS = tested on: SF-295 CNS
SF-268 CNS = tested on: SF-268 CNS
K-562 leukemia = tested on: K-562 leukemia
SK-OV-3 ovarian = tested on: SK-OV-3 ovarian
OVCAR-5 ovarian = tested on: OVCAR-5 ovarian
HT29 colon = tested on: HT29 colon
KM12 colon = tested on: KM12 colon
HCT-15 colon = tested on: HCT-15 colon
MDA-N = tested on: MDA-N
HCC-2998 colon = tested on: HCC-2998 colon
COLO 205 colon = tested on: COLO 205 colon
LOX IMVI melanoma = tested on: LOX IMVI melanoma
SR leukemia = tested on: SR leukemia

SMILES	TGI (M14 melanoma)	TGI (MALME-3M melanoma)	TGI (SNB-19 CNS)	TGI (SW-620 colon)	TGI (UO-31 renal)	TGI (BT-549 breast)	TGI (PC-3 prostate)	TGI (SF-295 CNS)	TGI (SF-268 CNS)	TGI (K-562 leukemia)	TGI (SK-OV-3 ovarian)	TGI (OVCAR-5 ovarian)	TGI (HT29 colon)	TGI (KM12 colon)	TGI (HCT-15 colon)	TGI (MDA-N)	TGI (HCC-2998 colon)	TGI (COLO 205 colon)	TGI (LOX IMVI melanoma)	TGI (SR leukemia)
Nc1ccccc1/C=C\c1ccccc1	> 100 µM	> 100 µM	> 100 µM	> 100 µM	> 100 µM	> 100 µM	> 100 µM	> 100 µM	> 100 µM	> 100 µM	> 100 µM	> 100 µM	> 100 µM	> 100 µM	> 100 µM	> 100 µM				
CC(=O)N1CC(C)(C)c2c1cc(C)c(O)c2C	> 100 µM		> 100 µM	> 100 µM	> 100 µM		> 100 µM	> 100 µM	> 100 µM	> 100 µM	> 100 µM	> 100 µM	> 100 µM	> 100 µM	> 100 µM	> 100 µM	> 100 µM	> 100 µM	> 100 µM	
COC(=O)c1c(C)ccc2c(O)c3c(cc12)C(=O)c1c2c(cc(O)c1C3=O)C1(C)OC(C)(O2)C(O)C(N(C)C)C1O (stereo not drawn)	10.4 µM	6.42 µM	7.22 µM	> 100 µM	9.27 µM	10.7 µM	4.89 µM	25.1 µM	2.7 µM		> 100 µM	7.19 µM	2.01 µM	2.97 µM		2.58 µM	1.39 µM	7.56 µM		
CN(C)NC1=NS(=O)(=O)c2cc3c(cc2S1)N(N(C)C)C(=O)c1cc2c(cc1N(N(C)C)C3=O)SC(NN(C)C)=NS2(=O)=O	> 10 µM	> 10 µM	> 10 µM	> 10 µM	> 10 µM	> 10 µM	> 10 µM	> 10 µM	> 10 µM	> 10 µM	> 10 µM	> 10 µM	> 10 µM	> 10 µM	> 10 µM		> 10 µM	> 10 µM	> 10 µM	> 10 µM
NNC(=O)Cc1cccnc1	> 100 µM	> 100 µM	> 100 µM	> 100 µM	> 100 µM	> 100 µM	> 100 µM	> 100 µM	> 100 µM	> 100 µM	> 100 µM	> 100 µM	> 100 µM	> 100 µM	> 100 µM	> 100 µM	> 100 µM	> 100 µM	> 100 µM	
CC1(C)CC(=O)C2=C(C1)NC(SCC(=O)O)=C(C#N)C2c1ccc(Br)cc1 (stereo not drawn)	> 100 µM		> 100 µM	> 100 µM	15.6 µM	> 100 µM	> 100 µM	> 100 µM	> 100 µM		> 100 µM	> 100 µM	> 100 µM	> 100 µM	> 100 µM	> 100 µM	> 100 µM	> 100 µM	> 100 µM	
[N-]=[N+]=C(C(=O)OCC#CCOC(=O)C(=[N+]=[N-])S(=O)(=O)c1ccccc1)S(=O)(=O)c1ccccc1	> 10 µM	> 10 µM	> 10 µM	> 10 µM	0.519 µM	> 10 µM	> 10 µM	> 10 µM	> 10 µM	> 10 µM	> 10 µM	> 10 µM	> 10 µM	> 10 µM	> 10 µM	> 10 µM	> 10 µM	> 10 µM	> 10 µM	
[N-]=[N+]=NC1=NNC2(C(=O)N1)c1ccccc1-c1ccccc12	> 100 µM	33.3 µM	> 100 µM	> 100 µM	> 100 µM	> 100 µM	> 100 µM	> 100 µM	> 100 µM	> 100 µM	> 100 µM	> 100 µM	> 100 µM		> 100 µM	> 100 µM	> 100 µM	> 100 µM	> 100 µM	
O=c1[nH]nc(Cc2ccccc2)n1/N=C/c1ccc([N+](=O)[O-])o1	7.1 µM	3.21 µM	38.1 µM	> 100 µM	> 100 µM	1.7 µM	20.9 µM	36.2 µM	11.7 µM	> 100 µM	> 100 µM	26.1 µM	18.9 µM	6.49 µM	> 100 µM	4.83 µM	71.6 µM	> 100 µM	> 100 µM	
O=c1[nH]c(=S)c2cc3c(=S)[nH]c(=O)n(CCC(c4ccccc4)(c4ccccc4)c4ccccc4)c3nc2n1CCC(c1ccccc1)(c1ccccc1)c1ccccc1	> 100 µM	> 100 µM	> 100 µM		> 100 µM	> 100 µM	> 100 µM	> 100 µM	> 100 µM	> 100 µM	> 100 µM	> 100 µM		> 100 µM	> 100 µM	> 100 µM	> 100 µM	> 100 µM		
Fc1ccc(C2NC(=S)NC3=C2CCOc2c3ccc3ccccc23)cc1 (stereo not drawn)	> 100 µM	> 100 µM	> 100 µM	> 100 µM	> 100 µM	> 100 µM	> 100 µM	> 100 µM	> 100 µM	> 100 µM	> 100 µM	> 100 µM		> 100 µM	> 100 µM		69.1 µM	30.3 µM		
COc1ccc(C2c3cc4c(cc3OC(NNC(N)=O)C2C)OCO4)cc1 (stereo not drawn)	> 60.1 µM	> 100 µM	> 100 µM	> 100 µM	> 90.5 µM	> 95.7 µM	53.8 µM	21.1 µM	> 100 µM	> 34.9 µM	> 100 µM	> 100 µM	17.2 µM	> 100 µM	36.3 µM	6.86 µM	35 µM	15 µM	> 100 µM	
Cc1cccc(/C=N/NC(=S)N2CCCCCC2)n1	0.441 µM	25.3 µM	> 100 µM	> 100 µM	9.91 µM	14.4 µM	> 72.5 µM	31.7 µM		> 100 µM		> 72.2 µM	> 40 µM	> 44.7 µM	> 36.3 µM	> 45.9 µM	> 100 µM	0.632 µM	17 µM	
